From patent US20040167226A1, “Methods for the treatment of pain and traumatic injury using benzamides and compositions containing the same” (priority 2002, published 2004)
Entries after “also recorded” stand apart in the source; their conditions may differ.

Key:
TNFα = assay: Immunohistochemistry for inflammatory marker TNFα on contused spinal cord; format: in vivo; settings: rats after contusion injury; 72 h post-injury, 1 mm caudal to epicenter
Protocol: Compound A was tested in both the rat dorsal hemisection (Guth, L. et al. (1980), J. Neurosurgery 52: 73-86) and contusion models (Scheff, S. W. (2003), J. Neurotrauma 20: 179-193) for evaluation of efficacy. These models are widely used in the field of spinal cord injury and replicate many of the pathological aspects found in humans who have sustained a spinal cord injury. Rats were subjected to an experimental spinal cord injury at T8, and were given Compound A shortly thereafter. Behavioral tests to assess the locomotion deficits were performed after the lesion. At the end of the experiment, animals were sacrificed and the spinal cord was collected for histopathological analysis. […] Histological assessment of the tissue at the site of injury was also made in both the drug treated and untreated group. In particular, subsequent to the behavioral measurement, spinal cord tissue from each animal was obtained and serial transverse tissue sections were stained with either anti-neurofilament antibody or antibodies specific for the inflammatory markers, tumor necrosis factor alpha (TNFα) and for the inducible form of nitric oxide synthetase (iNOS), followed by incubation with Alexa Fluor®-conjugated secondary antibodies.
Histological assessment of the tissue at the site of injury was also made in both the drug treated and untreated group. […]

[1] = test system: Taxol-induced mechanical allodynia; assay: Taxol-induced neuropathic pain mouse model, von Frey filament paw withdrawal; format: in vivo, C57B16 mice; settings: mice
Protocol: C57B16 male mice were preconditioned (trained) in the enclosure one hour per day in the morning for one week prior to the baseline measurement. The baseline response to the mechanical stimulus was measured using a von Frey filament with 0.6 gram of force (von Frey number 3.84). Briefly, the von Frey filament, was applied to the plantar area of the right hind paw of mouse. The frequency of paw withdrawal was calculated in terms of percentage response, where the higher percentage indicates more pain, whereas the lower the percentage indicates less pain. Based on past experience with the C57B16 strain of adult male mice, animals with baseline no greater than 40% of response were included in further studies, while those with greater than 40% of paw withdrawal response to this particular force of stimulus, known as spontaneous mechanical allodynia, were discarded from these studies. The paw withdrawal behavior includes, licking the stimulated paw, vigorously shaking the paw and active avoidance upon application of innocuous mechanical stimuli. For those mice without spontaneous mechanical allodynia, Taxol was administered to the mice daily, 5 days a week, for longer than a one week period. Generally, mice treated with daily i.p. administration of 1 mg/kg (body weight) of Taxol develop relatively stable mechanical allodynia, neuropathic pain, on day 9 and thereafter. Prior to compound A administration, the responses of mice to 0.6 gram of von Frey filament were measured for two consecutive days in the morning. Only those mice with paw withdrawal response to this particular von Frey filament stimulus no less than 60%, counted as mechanical allodynia, were included for later testing with the compounds of interest.
Five-week old, male C57B1/6 mice were purchased from Charles River and housed at the Renovis animal facility in South San Francisco. Mice were trained for one week in an enclosure made of Plexiglas with dimensions of 2 in×2.5 in×3.5 in (W, H, and L) with a meshed metal support. The baseline of response to mechanical stimulus was measured using a von Frey Filament (0.6 g=3.84 mN). Normally, the baseline response is between 0 to 40%.
Taxol was dissolved (1 mg/ml) in 50% Cremophor EL and 50% alcohol, and freshly diluted with saline to the final concentration of 0.2 mg/ml in 10% Cremophor EL, 10% alcohol. Mice were administered Taxol at 1 mg/kg of body weight, via ip daily, while the animals of the control group received vehicle (10% Cremophor EL and 10% alcohol in saline).
Five-week old C57B1/6 male mice were trained for one week in the von Frey filament test, and baseline response (percent paw withdrawal over 40 tests) to a von Frey filament (0.6 gram=3.84 mN) was measured (average shown in the graph as “baseline (mean)”=31%).
Trained mice were treated with 1 mg/kg (body weight) taxol in 10% Cremophor EL/10% ethanol via ip injection daily through the end of the experiment in order to induce the neuropathic pain state.
The percent pain response (percent paw withdrawal over 40 tests) with a von Frey filament (0.6 gram=3.84 mN) was measured at day 8 and day 9 after pain induction (average of these two shown in the graph as “pre-dosing (mean)”=75%). Those animals with either sensitive baseline (>40% response) or without pain (<60% response) after 9 days of taxol injection were not included in the data analysis. Animals receiving this daily dose of Taxol will develop neuropathic pain.
[…] The animals were then placed in the enclosure for assay. Mechanical allodynia was measured with von Frey filament (0.6 g=3.84 mN) at various times after administration.
Nine taxol-treated animals received […] vehicle (75% polyethylene glycol (PEG)) via ip injection; 8 taxol-treated animals were injected ip with a suspension of Compound A in vehicle at dose of 50 mg/kg (body weight). […]

CC(=O)Nc1ccc(C(=O)NC(C)(C)C)cc1 [Compound A, N-tert-butyl-4-acetamidobenzamide]
inflammatory marker TNFα in the region of the corticospinal tract vs untreated control (TNFα): decreased
mechanical allodynia under chronic dosing vs vehicle control ([1]; 5 mg/kg/per day and 10 mg/kg/per day i.p., one dose per day, Cremophor EL/ETOH/saline): less mechanical allodynia
percentage response to 0.6 gram von Frey filament ([1]; 10 mg/kg i.p. in Cremophor EL/ETOH/saline, 3-hour postdosing, +/-SEM): 40+/−10.9%
percentage response to 0.6 gram von Frey filament ([1]; 10 mg/kg i.p. in Cremophor EL/ETOH/saline, 6-hour postdosing, +/-SEM): 42+/−95%
pain under chronic dosing ([1]; 10 mg/kg/per day i.p., Cremophor EL/ETOH/saline): much less pain
percentage response to 0.6 gram von Frey filament ([1]; 20 mg/kg i.p. in Cremophor EL/ETOH/saline, 3-hours postdosing, not statistically significant (p 0.08)): 59+/−8.1%
analgesic effect on Taxol-induced pain (in words) ([1]; 50 mg/kg i.p. single dose in 75% PEG-200, 50 mg/kg): has activity preventing Taxol-induced pain; also recorded: strong analgesic effect
percentage of paw withdraw response to 0.6 gram von Frey filament ([1]; 50 mg/kg i.p. single dose in 75% PEG-200, 1-hour postdosing, +/-SEM): 20+/−7.6%
percentage of paw withdraw response to 0.6 gram von Frey filament ([1]; 50 mg/kg i.p. single dose in 75% PEG-200, 2-hour postdosing (so in the source), +/-SEM): 32.5+/−13.1%
percentage of paw withdraw response to 0.6 gram von Frey filament ([1]; 50 mg/kg i.p. single dose in 75% PEG-200, 24-hour postdosing, +/-SEM): 50+/−9.3%
percentage of paw withdraw response to 0.6 gram von Frey filament ([1]; 50 mg/kg i.p. single dose in 75% PEG-200, 48-hour postdosing, +/-SEM): 65+/−6.3%
time of peak analgesic efficacy post dosing ([1]; 5 and 10 mg/kg i.p. in Cremophor EL/ETOH/saline): 3 h
drug tolerance or drug accumulation under chronic dosing ([1]; 5 and 10 mg/kg/per day i.p. chronic dosing): no significant drug tolerance or drug accumulation effects
